We go through 2 compounds from patent US11484543B2, “Compositions and methods for diagnosing and treating diseases and disorders associated with mutant KCNJ5” (The Rockefeller University, priority 2017, dated 2022).

Changes are numbered by the printed parent chain. Read-outs that look alike come from different tables or passages of the source.

For one assay, the target named is T1, KCNJ5^G151R (Homo sapiens, UniProt P48544, G151R).
T1 construct: expressed in transfected cells
T1 sequence (P48544 1-419 G151R): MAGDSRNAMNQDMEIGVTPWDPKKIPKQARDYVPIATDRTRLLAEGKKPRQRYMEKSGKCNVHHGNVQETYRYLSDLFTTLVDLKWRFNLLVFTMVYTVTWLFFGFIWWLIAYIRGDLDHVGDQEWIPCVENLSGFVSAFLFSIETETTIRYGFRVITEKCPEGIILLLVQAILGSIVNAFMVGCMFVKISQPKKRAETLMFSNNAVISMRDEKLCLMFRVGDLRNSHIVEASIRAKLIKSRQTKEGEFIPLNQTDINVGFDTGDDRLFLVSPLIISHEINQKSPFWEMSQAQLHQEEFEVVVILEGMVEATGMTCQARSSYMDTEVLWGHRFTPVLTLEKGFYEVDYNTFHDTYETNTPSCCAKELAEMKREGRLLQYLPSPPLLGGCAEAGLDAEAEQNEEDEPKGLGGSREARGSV
The assay is described as follows: cell-based. It counts as cell-based. The procedure, abridged: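 Viability is read as cellular ATP by CellTiter-Glo luminescence 72 h later at 37 °C. Uninduced and induced untreated cells set 100% and 0% effect; curves use a 4-parameter logistic fit.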

The target of the next assay is T2, KCNJ5^L168R (Homo sapiens, UniProt P48544, L168R).
T2 construct: expressed in transfected cells
T2 sequence (P48544 1-419 L168R): T1 sequence (P48544 1-419 G151R) with R151G, L168R
The assay is described as follows: Cell viability assay (ATP, CellTiter-Glo): rescue of KCNJ5^L168R-induced lethality in inducible HEK293 cells. It counts as cell-based. In general terms: In ATP-based viability assays light output follows the ATP content of the culture.

Where [1] appears, read: 10-point dilution 20 to 0.0391 μM, N=3, four-parameter fit.
Where [2] appears, read: tested as in FIG. 7 (FIGS. 9 and 10).

Consider `CC[C@H]1OC(=O)[C@H](C)[C@@H](O[C@H]2C[C@@](C)(OC)[C@@H](O)[C@H](C)O2)[C@H](C)[C@@H](O[C@@H]2O[C@H](C)C[C@H](N(C)C)[C@H]2O)[C@](C)(O)C[C@@H](C)/C(=N\OCOCCOC)[C@H](C)[C@@H](O)[C@]1(C)O` [Roxithromycin, roxithromycin], for which, on KCNJ5^G151R (setting [1]), the G151R maximum inhibition came to 105.92%. On KCNJ5^G151R (setting [1]), this compound registered a G151R minimum inhibition of 9.92%. Besides, the viability at 10 µM stood at 107% on KCNJ5^G151R (HEK293, 72 h, mean of primary screen and hit pick, read-out: mean % effect); 108% on KCNJ5^G151R (HEK293, ATP level 72 h after induction, uninduced = 100%, induced = 0% effect, first of the two runs (primary screen / hit pick), read-out: % effect (1)); 107% at KCNJ5^G151R (HEK293, ATP level 72 h after induction, uninduced = 100%, induced = 0% effect, second of the two runs (primary screen / hit pick, confirmatory testing), read-out: % effect (2)). Further, the “rescue of ATP level” value at KCNJ5^G151R (dose-response at 1.1, 3.3 and 10 μM) was “virtually complete rescue of ATP level”. Further, at KCNJ5^G151R (macrolide series, dilution curves), the “inhibition of KCNJ5^MUT (structure-activity statement)” value was “potent effects”. The compound further showed an L168R maximum inhibition at KCNJ5^L168R (setting [1]) of 81.39%. For the same compound, the “dose response on KCNJ5^L168R” value on KCNJ5^L168R (tested at 1.1, 3.3 and 10 μM) was “showed a dose response”.

With “N-demethyl-N-isobutyl-8,9-anhydroerythromycin A 6,9-hemiacetal [PLUX37]”, on KCNJ5^G151R (setting [2]), the “inhibition of KCNJ5^G151R by synthesized macrolide derivatives” value was “significant inhibition”. In addition, at KCNJ5^L168R (setting [2]), the “inhibition of KCNJ5^L168R by synthesized macrolide derivatives” value is given as “significant inhibition”.
